From patent US20090082341A1 (SYNOSIA THERAPEUTICS, priority 2007, published 2009)
Entries after “also recorded” stand apart in the source; their conditions may differ.

What was measured:
[1] = system: male Sprague Dawley rats; test: Elevated plus-maze test; type: in vivo, rat
Procedure: Animals are placed in the center of an elevated maze containing two closed and two open arms. The time spent in the open arms of the maze, together with the number of times the animals enter the open arms of the maze, are taken as indices of the level of neophobic anxiety of these animals.
Levels of anxiety were determined by the time spent and the distance traveled in the open arms of the maze. Data are mean±SEM based on 12 animals per group. […] FIG. 5: SEM: standard error of the mean. Results are based on 11 animals. […] Data analyzed with a paired t-test.
Adult male Sprague Dawley rats weighing approximately 200 g at the start of the experiment were used. They were housed in groups of four in Macrolon Type 3 cages (810 cm^2) with sawdust bedding. The animals were maintained on a 12:12 h light-dark cycle with light onset at 6 am., with free access to tap water and food (Promikliba Kaiseraugst, Switzerland). Room temperature (21-23° C.) and humidity (55-65%) were kept constant.
The elevated plus-maze consisted of two open arms perpendicular to two closed arms (each arm was 10 cm wide×50 cm long) extending from a small open central area. The apparatus was constructed from grey polyvinylchloride plastic and placed 50 cm above the floor. […] The apparatus was situated in a sound-attenuated observation room with controlled illumination (200 lux on the central platform of the plus-maze). Rats were tested in a randomized order. The test started by placing the animal on the central platform facing a closed arm. The duration of the test was 5 minutes. 70% ethanol was used to clean the apparatus prior to the introduction of each animal.
The plus-maze was positioned in the middle of a closed black environment with the animal observed via a closed circuit video camera mounted above the maze. Behavioral analysis was conducted using a computerized system (Ethovision, Noldus Information Technology, The Netherlands).
Each treatment group consisted of 9 to 12 rats. Each animal was used only for a single experiment. […] After drug administration, rats were isolated in small cages without sawdust and water. After one hour, they were placed in the plus-maze.
The measures selected to represent anxiolytic-like behavior was the time spent (sec) within the open arms, the distance traveled (cm) within the open arms, and the number of transitions between the central platform and the open arms. The measure used to quantify motor activity was the distance traveled per second (speed) within the closed arms.
The compounds were administered p.o. (gavage) in a volume of 5 ml/kg body weight. Control animals received equal volume injections of vehicle.
A p-value lower than 0.05 was considered significant. The effects of chlordiazepoxide were analysed using a t-test.

[2] = system: male Wistar rats; test: Passive avoidance test, scopolamine-induced amnesia; type: in vivo, rat
From the text: This test relies on training rodents to avoid an aversive event (electric shock) by curbing a normal behavior, and at specified intervals after training, testing the animals for retention of such learning.
Adult rats were trained in a step-down test to avoid foot shock by remaining on a plastic platform. […] Amnesia was induced by administering scopolamine subcutaneously (sc) given immediately post-training.
The protocol to generate FIG. 6 data are as follows: Adult rats (n=16/dose group) were trained to avoid foot shock by remaining on a plastic platform in a step-down test. […] Amnesia was induced by administration of scopolamine sc at 1 mg/kg immediately post-training. Retention, measured as the % of rats with correct responses, was assessed 2 h post-training.
Male adult Wistar rats (HanBrl: WIST (SPF); RCC Füllinsdorf) weighing approximately 94-113 g were used. The animals were housed in groups of four in Macrolon Type 3 cages (810 cm^2) with sawdust bedding. Tap water and standard laboratory chow (Ratte Alleinfutter, extrudat No 3436; Provimikliba Kaiseraugst, Switzerland) were continuously available except during testing. The animal quarters were maintained on a 12:12 hr light-dark cycle with light onset at 6 a.m. […]
Two hours after the training and the post-training treatment, each rat was evaluated for retention of the passive avoidance response in the retention test. […]

[3] = 3, 10 and 30 mg/kg po, vs vehicle

COc1ccc(N2CCOCC2)c2sc(NC(=O)N3CCC(C)(O)CC3)nc12 [4-hydroxy-4-methyl-piperidine-1-carboxylic acid (4-methoxy-7-morpholin-4-yl-benzothiazol-2-yl)-amide]
distance traveled in open arms [1, 3]: dose-dependent increase; also recorded: significantly and dose-dependently increased | entries into the open arms [1, 3]: dose-dependent increase; also recorded: significantly and dose-dependently increased | speed in the closed arms [1, 3]: increased speed in the closed arms reaching statistical significance at 10 and 30 mg/kg | time spent in the open arms [1, 3]: significant dose-dependent increase; also recorded: significantly and dose-dependently increased | dose of maximal effect, all parameters measured ([1]; po): 30 mg/kg | lowest dose that reached statistical significance, distance traveled in the open arms ([1]; po): 30 mg/kg | lowest dose that reached statistical significance, open arm entries ([1]; po): 10 mg/kg | lowest dose that reached statistical significance, time spent in the open arms ([1]; po): 30 mg/kg | proportion of scopolamine-treated animals exhibiting passive avoidance retention (correct responses) ([2]; 100 mg/kg po + scopolamine 1 mg/kg sc, 2 h post-training, scopolamine + vehicle 12.5%): 43.75% | reversal of the scopolamine-induced retention deficit ([2]; 3, 10, 30 and 100 mg/kg po immediately post-training): dose-dependent and statistically significant at the highest dose tested (100 mg/kg po); also recorded: dose-dependent reversal
